{
  "source": "patent US20230026869A1",
  "about": "“CRYSTAL FORM OF NUCLEOPROTEIN INHIBITOR AND USE THEREOF” (CHIA TAI TIANQING PHARMACEUTICAL GROUP CO., LTD., priority 2019, published 2023)",
  "key": {"[1]": {"assay": "Pharmacokinetic study in Balb/c mice by oral administration and intravenous injection", "format": "in vivo", "details": "mouse, Balb/c female mice, plasma", "experimental": "Pharmacokinetic Study of the Test Compound in Balb/c Mice by Oral Administration and Intravenous Injection: The test compound was mixed with a solution containing dimethyl sulfoxide (101), polyethylene glycol 400 (600%) and water (300), and the mixture was vortexed and sonicated to prepare a 0.2 mg/mL clear solution, which was filtered through a millipore filter for later use. Balb/c female mice aged 7 to 10 weeks were intravenously injected with the candidate compound solution at a dose of 1 mg/kg. The test compound was mixed with an aqueous solution containing 10% polyoxyethylene stearate, and the mixture was vortexed and sonicated to prepare a 0.3 mg/mL clear solution for later use. Balb/c female mice aged 7 to 10 weeks were orally administered with the candidate compound solution at a dose of 3 mg/kg. Whole-blood was collected and plasma was prepared. Drug concentration was analyzed by LC-MS/MS and pharmacokinetic parameters were calculated with Phoenix WinNonlin software."}, "[2]": {"assay": "Metabolic stability in liver microsomes of cynomolgus monkeys", "format": "in vitro ADME", "details": "cynomolgus monkey", "experimental": "(§1) Objective: The metabolic stability of the tested compound of formula (I) in liver microsomes of rats, beagle dogs and cynomolgus monkeys was determined. […]"}, "[3]": {"assay": "Metabolic stability in liver microsomes of beagle dogs", "format": "in vitro ADME", "details": "dog", "experimental": "as §1"}, "CYP2C19": {"target": "T1, CYP2C19 (Homo sapiens, UniProt P33261)", "T1 construct": "from tissue; host or cells: human liver microsomes", "T1 sequence (P33261 whole entry)": "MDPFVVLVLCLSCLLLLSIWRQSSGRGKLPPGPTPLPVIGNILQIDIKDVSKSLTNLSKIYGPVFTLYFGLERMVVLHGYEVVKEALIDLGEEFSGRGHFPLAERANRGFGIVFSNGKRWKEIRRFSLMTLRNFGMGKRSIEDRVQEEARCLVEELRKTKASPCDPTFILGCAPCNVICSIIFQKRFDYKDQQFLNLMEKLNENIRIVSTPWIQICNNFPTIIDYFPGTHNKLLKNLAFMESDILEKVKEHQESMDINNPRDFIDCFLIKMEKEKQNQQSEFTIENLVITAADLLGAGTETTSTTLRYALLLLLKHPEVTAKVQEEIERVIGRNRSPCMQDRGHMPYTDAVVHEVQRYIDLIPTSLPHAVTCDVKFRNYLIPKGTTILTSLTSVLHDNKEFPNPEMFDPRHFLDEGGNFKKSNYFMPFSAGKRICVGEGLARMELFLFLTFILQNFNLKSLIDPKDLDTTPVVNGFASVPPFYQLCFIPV", "assay": "Inhibition of human liver microsomal cytochrome P450 isoenzyme CYP2C19", "format": "in vitro ADME", "details": "human liver microsomes", "experimental": "(§2) Objective: The inhibitory effect of the test compound on the activity of human liver microsomal cytochrome P450 isoenzymes (CYP1A2, CYP2C9, CYP2C19, CYP2D6 and CYP3A4) was determined. […]"}, "[4]": {"assay": "Metabolic stability in liver microsomes of SD rats", "format": "in vitro ADME", "details": "rat", "experimental": "as §1"}, "CYP2D6": {"target": "T2, CYP2D6 (Homo sapiens, UniProt P10635)", "T2 construct": "from tissue; host or cells: human liver microsomes", "T2 sequence (P10635 whole entry)": "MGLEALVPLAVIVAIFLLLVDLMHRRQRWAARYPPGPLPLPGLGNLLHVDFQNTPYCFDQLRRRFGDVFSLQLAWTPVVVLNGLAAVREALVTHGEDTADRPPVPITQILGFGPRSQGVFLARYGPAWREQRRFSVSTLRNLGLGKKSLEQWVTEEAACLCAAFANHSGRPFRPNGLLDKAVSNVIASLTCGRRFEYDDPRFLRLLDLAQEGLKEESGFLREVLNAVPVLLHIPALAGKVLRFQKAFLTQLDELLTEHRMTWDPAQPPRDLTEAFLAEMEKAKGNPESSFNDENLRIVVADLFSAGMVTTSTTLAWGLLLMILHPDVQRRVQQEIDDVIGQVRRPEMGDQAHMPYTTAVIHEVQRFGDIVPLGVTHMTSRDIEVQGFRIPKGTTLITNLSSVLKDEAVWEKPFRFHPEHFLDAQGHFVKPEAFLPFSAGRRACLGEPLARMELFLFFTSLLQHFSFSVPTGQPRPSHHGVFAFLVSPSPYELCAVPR", "assay": "Inhibition of human liver microsomal cytochrome P450 isoenzyme CYP2D6", "format": "in vitro ADME", "details": "human liver microsomes", "experimental": "as §2"}},
  "data": [
    {"smiles": "CC1(NC(=O)C(=O)c2c(Cl)c(C(=O)Nc3cc(F)c(F)c(F)c3)c3n2CCC3)CCC(CC(=O)O)CC1", "note": "(stereo not shown) [Compound of formula (I)]", "values": [
      {"measurement": "AUC", "setting": "[1]; 3 mg/kg, PO 3 mpk, read-out: Area under the plasma concentration-time curve AUC", "value": 2.27, "unit": "µM·h"},
      {"measurement": "Cmax", "setting": "[1]; 3 mg/kg, PO 3 mpk, read-out: Peak concentration Cmax", "value": 1480, "unit": "nM"},
      {"measurement": "Tmax", "setting": "[1]; 3 mg/kg, PO 3 mpk, read-out: Peak time Tmax", "value": 0.5, "unit": "h"},
      {"measurement": "bioavailability", "setting": "[1]; 3 mg/kg, PO 3 mpk vs IV 1 mg/kg, read-out: Bioavailability (F %)", "value": 51, "unit": "%"},
      {"measurement": "Vd", "setting": "[1]; IV 1 mg/kg, read-out: Apparent volume of distribution (Vdss)", "value": 3.1, "unit": "L/kg"},
      {"measurement": "AUC(0-t)", "setting": "[1]; IV 1 mg/kg, read-out: Area under the plasma concentration-time curve AUC0-24 h", "value": 1.49, "unit": "µM·h"},
      {"measurement": "clearance", "setting": "[1]; IV 1 mg/kg, read-out: Clearance (CL)", "value": 20, "unit": "mL/min/kg"},
      {"measurement": "half-life", "setting": "[1]; IV 1 mg/kg, read-out: Half-life T1/2 (converted)", "value": 1.95, "unit": "h"},
      {"measurement": "microsomal CLint at 1 μM", "setting": "[2]; microsomes", "value": "< 9.6", "unit": "µL/min/mg"},
      {"measurement": "CLint scaled at 1 μM", "setting": "[2]; Cynomolgus monkeys liver microsomes", "value": "< 13", "unit": "mL/min/kg"},
      {"measurement": "half-life at 1 μM", "setting": "[2]; Cynomolgus monkeys liver microsomes, 1 μM compound, 0.5 mg/mL", "value": "> 2.42", "unit": "h"},
      {"measurement": "microsomal CLint at 1 μM", "setting": "[3]; beagle, microsomes", "value": "< 9.6", "unit": "µL/min/mg"},
      {"measurement": "CLint scaled at 1 μM", "setting": "[3]; Beagle dogs liver microsomes", "value": "< 13.8", "unit": "mL/min/kg"},
      {"measurement": "half-life at 1 μM", "setting": "[3]; Beagle dogs liver microsomes, 1 μM compound, 0.5 mg/mL", "value": "> 2.42", "unit": "h"},
      {"measurement": "IC50", "setting": "CYP2C19", "value": "> 50", "unit": "µM"},
      {"measurement": "microsomal CLint at 1 μM", "setting": "[4]; SD, microsomes", "value": "< 9.6", "unit": "µL/min/mg"},
      {"measurement": "CLint scaled at 1 μM", "setting": "[4]; SD rats liver microsomes", "value": "< 17.3", "unit": "mL/min/kg"},
      {"measurement": "half-life at 1 μM", "setting": "[4]; SD rats liver microsomes, 1 μM compound, 0.5 mg/mL", "value": "> 2.42", "unit": "h"},
      {"measurement": "IC50", "setting": "CYP2D6", "value": "> 50", "unit": "µM"}
    ]}
  ]
}
